Reference: the NIST ThermoML archive (doi:10.1021/je900938b)
Numbers after ± are expanded uncertainties.

Test: xn = mol fraction of the nth substance listed
Conditions: 101 kPa, Liquid; for mass density: Pycnometric method

OCC(O)CO [glycerol] + OCCO
Conditions | mass density [kg/m3] | viscosity [mPa·s]
298.15 K, x1 = 0.1001 | 1129.2 ± 11 | 25.1 ± 0.58
298.15 K, x1 = 0.2002 | 1147.2 ± 12 | 37.4 ± 0.86
298.15 K, x1 = 0.3001 | 1164 ± 12 | 55 ± 1.3
298.15 K, x1 = 0.4002 | 1180.2 ± 12 | 82.8 ± 2.2
298.15 K, x1 = 0.4991 | 1195 ± 12 | 121.4 ± 3.9
298.15 K, x1 = 0.6011 | 1209.4 ± 12 | 184.2 ± 7.4
298.15 K, x1 = 0.7015 | 1222.6 ± 12 | 272.9 ± 13
298.15 K, x1 = 0.7981 | 1234.5 ± 12 | 405.9 ± 24
298.15 K, x1 = 0.8961 | 1246.1 ± 12 | 611.8 ± 42
298.15 K, x1 = 1 | 1257.8 ± 13 | 943.8 ± 76
303.15 K, x1 = 0.1001 | 1126.3 ± 11 | 20.7 ± 0.46
303.15 K, x1 = 0.2002 | 1144.4 ± 12 | 30.3 ± 0.69
303.15 K, x1 = 0.3001 | 1161.2 ± 12 | 43.1 ± 1
303.15 K, x1 = 0.4002 | 1177.3 ± 12 | 64.2 ± 1.5
303.15 K, x1 = 0.4991 | 1192.2 ± 12 | 91.4 ± 2.5
303.15 K, x1 = 0.6011 | 1206.7 ± 12 | 134 ± 4.6
303.15 K, x1 = 0.7015 | 1219.7 ± 12 | 195 ± 8.1
303.15 K, x1 = 0.7981 | 1231.5 ± 12 | 285.9 ± 14
303.15 K, x1 = 0.8961 | 1243.2 ± 12 | 422.7 ± 25
303.15 K, x1 = 1 | 1254.7 ± 13 | 628.9 ± 44
308.15 K, x1 = 0.1001 | 1122.9 ± 11 | 17 ± 0.38
308.15 K, x1 = 0.2002 | 1141.2 ± 11 | 24.1 ± 0.55
308.15 K, x1 = 0.3001 | 1158.2 ± 12 | 33.9 ± 0.78
308.15 K, x1 = 0.4002 | 1174.5 ± 12 | 48.5 ± 1.1
308.15 K, x1 = 0.4991 | 1189.5 ± 12 | 69.4 ± 1.7
308.15 K, x1 = 0.6011 | 1204 ± 12 | 100.2 ± 2.9
308.15 K, x1 = 0.7015 | 1217 ± 12 | 142.4 ± 5
308.15 K, x1 = 0.7981 | 1229.1 ± 12 | 206.2 ± 8.8
308.15 K, x1 = 0.8961 | 1240.7 ± 12 | 299.9 ± 15
308.15 K, x1 = 1 | 1252.2 ± 12 | 431.9 ± 26
313.15 K, x1 = 0.1001 | 1119.9 ± 11 | 14 ± 0.31
313.15 K, x1 = 0.2002 | 1138.2 ± 11 | 19.6 ± 0.44
313.15 K, x1 = 0.3001 | 1155.2 ± 12 | 27 ± 0.62
313.15 K, x1 = 0.4002 | 1171.6 ± 12 | 38.2 ± 0.88
313.15 K, x1 = 0.4991 | 1186.7 ± 12 | 52.6 ± 1.2
313.15 K, x1 = 0.6011 | 1201.3 ± 12 | 75.2 ± 1.9
313.15 K, x1 = 0.7015 | 1214.3 ± 12 | 107 ± 3.2
313.15 K, x1 = 0.7981 | 1226.5 ± 12 | 145.2 ± 5.2
313.15 K, x1 = 0.8961 | 1238 ± 12 | 204.6 ± 8.8
313.15 K, x1 = 1 | 1249.4 ± 12 | 295.9 ± 15
318.15 K, x1 = 0.1001 | 1116.3 ± 11 | 11.7 ± 0.26
318.15 K, x1 = 0.2002 | 1134.7 ± 11 | 16.1 ± 0.36
318.15 K, x1 = 0.3001 | 1151.8 ± 12 | 21.7 ± 0.49
318.15 K, x1 = 0.4002 | 1168.2 ± 12 | 30.6 ± 0.7
318.15 K, x1 = 0.4991 | 1183.3 ± 12 | 41.1 ± 0.94
318.15 K, x1 = 0.6011 | 1197.8 ± 12 | 57.3 ± 1.3
318.15 K, x1 = 0.7015 | 1210.9 ± 12 | 81 ± 2.1
318.15 K, x1 = 0.7981 | 1223.1 ± 12 | 108.2 ± 3.3
318.15 K, x1 = 0.8961 | 1234.7 ± 12 | 148.4 ± 5.3
318.15 K, x1 = 1 | 1245.8 ± 12 | 185.8 ± 7.7
323.15 K, x1 = 0.1001 | 1113.4 ± 11 | 9.65 ± 0.21
323.15 K, x1 = 0.2002 | 1131.8 ± 11 | 13.1 ± 0.29
323.15 K, x1 = 0.3001 | 1148.7 ± 12 | 17.9 ± 0.4
323.15 K, x1 = 0.4002 | 1165.2 ± 12 | 24.4 ± 0.55
323.15 K, x1 = 0.4991 | 1180.1 ± 12 | 33.6 ± 0.76
323.15 K, x1 = 0.6011 | 1194.6 ± 12 | 45.3 ± 1
323.15 K, x1 = 0.7015 | 1207.9 ± 12 | 62 ± 1.4
323.15 K, x1 = 0.7981 | 1219.9 ± 12 | 82.4 ± 2.1
323.15 K, x1 = 0.8961 | 1231.2 ± 12 | 111 ± 3.4
323.15 K, x1 = 1 | 1242.3 ± 12 | 151.2 ± 5.4
328.15 K, x1 = 0.1001 | 1109.4 ± 11 | 8.31 ± 0.18
328.15 K, x1 = 0.2002 | 1128 ± 11 | 11 ± 0.24
328.15 K, x1 = 0.3001 | 1145.1 ± 12 | 14.6 ± 0.33
328.15 K, x1 = 0.4002 | 1161.7 ± 12 | 20.1 ± 0.45
328.15 K, x1 = 0.4991 | 1176.7 ± 12 | 26.5 ± 0.61
328.15 K, x1 = 0.6011 | 1191.4 ± 12 | 36 ± 0.83
328.15 K, x1 = 0.7015 | 1204.7 ± 12 | 48.1 ± 1.1
328.15 K, x1 = 0.7981 | 1216.9 ± 12 | 64.4 ± 1.5
328.15 K, x1 = 0.8961 | 1228.3 ± 12 | 84.6 ± 2.2
328.15 K, x1 = 1 | 1239.3 ± 12 | 108.4 ± 3.3
333.15 K, x1 = 0.1001 | 1106 ± 11 | 7.06 ± 0.16
333.15 K, x1 = 0.2002 | 1124.6 ± 11 | 9.17 ± 0.2
333.15 K, x1 = 0.3001 | 1141.8 ± 11 | 12.4 ± 0.27
333.15 K, x1 = 0.4002 | 1158.4 ± 12 | 16.4 ± 0.37
333.15 K, x1 = 0.4991 | 1173.5 ± 12 | 21.5 ± 0.48
333.15 K, x1 = 0.6011 | 1188.2 ± 12 | 28.4 ± 0.65
333.15 K, x1 = 0.7015 | 1201.5 ± 12 | 37.6 ± 0.86
333.15 K, x1 = 0.7981 | 1213.8 ± 12 | 49.4 ± 1.1
333.15 K, x1 = 0.8961 | 1225.3 ± 12 | 66.2 ± 1.6
333.15 K, x1 = 1 | 1236.1 ± 12 | 84.8 ± 2.2
338.15 K, x1 = 0.1001 | 1102.8 ± 11 | 6.1 ± 0.13
338.15 K, x1 = 0.2002 | 1121.4 ± 11 | 7.81 ± 0.17
338.15 K, x1 = 0.3001 | 1138.6 ± 11 | 10.5 ± 0.23
338.15 K, x1 = 0.4002 | 1155.1 ± 12 | 13.8 ± 0.3
338.15 K, x1 = 0.4991 | 1170.2 ± 12 | 18.1 ± 0.4
338.15 K, x1 = 0.6011 | 1185 ± 12 | 23.5 ± 0.52
338.15 K, x1 = 0.7015 | 1198.3 ± 12 | 30.7 ± 0.69
338.15 K, x1 = 0.7981 | 1210.6 ± 12 | 39.5 ± 0.9
338.15 K, x1 = 0.8961 | 1222.2 ± 12 | 50.9 ± 1.2
338.15 K, x1 = 1 | 1232.8 ± 12 | 62.2 ± 1.6
